PMC11359702, “Synthesis and Biochemical Evaluation of Ethanoanthracenes and Related Compounds: Antiproliferative and Pro-Apoptotic Effects in Chronic Lymphocytic Leukemia (CLL)” (Pharmaceuticals, 2024)
Several values for one entry are separate records, joined by “and”; a condition that tells them apart may be missing. Identical values can stand only once. Like-named read-outs stand apart in the source and are kept apart here.

What was measured:
[1] = system: PGA-1 cells; experiment: alamarBlue cell viability assay; conditions: for viability at 10 µM: read-out: cell viability; for IC50: read-out: PGA-1 IC50
[2] = system: HG-3 cells; experiment: alamarBlue cell viability assay; conditions: HG-3, 24 h; for viability at 1 µM: read-out: cell viability, HG-3, 1 µM, 24 h, vehicle = 100%; for viability at 10 µM: read-out: cell viability, HG-3, 10 µM, 24 h, vehicle = 100%; for IC50: read-out: HG-3 IC50
[3] = system: HG-3 cells
[4] = system: HG-3 and PGA-1 cell lines; experiment: alamarBlue cell viability assay, mean of both CLL cell lines; assay type: cell-based, human; conditions: mean of HG-3 and PGA-1
[5] = system: PGA-1 cells; conditions: 10 µM
[6] = HPLC stability study in phosphate buffers; assay type: physicochemical; conditions: for % remaining 24 h pH 4 / % remaining 24 h pH 7.4 / % remaining 24 h pH 9 / remaining at 24 h, 14.6 µg/mL: HPLC; for recovery at 24 h: over the pH range studied (pH 4, 7.4 and 9); for remaining at 24 h, 14.6 µg/mL / half-life at 14.6 µg/mL: phosphate buffer
Protocol: A preliminary stability study was carried out on selected chalcones, maleic anhydride and maleimide adducts at acidic, neutral and basic conditions (pH 4, 7.4 and 9) using HPLC to determine suitability for further preclinical investigations. […] A possible degradation route for the maleimide 23n could be through the hydrolysis of the cyclic imide of the maleimide ring, leading to the resultant amic acid product.
All samples were analyzed using acetonitrile–water (80:20%, 70:30%, 60:40% isocratic) as the mobile phase over 10 min and a flow rate of 1 mL/min. Stock solutions were prepared by dissolving 5 mg of compounds in a mobile phase ([(acetonitrile (80%): water (20%)], 10 mL). Anhydride 22h was not detected at its retention time of 5.2 min at pH 9.0. The data presented represent the results of single experiments.
The HPLC stability studies for compounds 21a, 21i, 22h, 23a, 23g, 23n, 24a, 24h, 26a and 26n were performed using a Symmetry® column (C18, 5 µm, 4.6 × 150 mm), a Waters 2487 Dual Wavelength Absorbance detector, and an HPLC pump: Waters 1525 binary and Autosampler; Waters 717 plus (Waters Corporation, Milford, MA, USA), mobile phase [(acetonitrile (80%) and water (20%)] with a typical run time of 10 min and a flow rate of 1 mL/min with detection at 254 nm. The selected compounds 21a, 21i, 22h, 23a, 23g, 23n, 24a, 24h, 26a and 26n (5 mg) in the mobile phase (10 mL) provided the stock solution for the analysis. The phosphate buffers were prepared at pH values of 4, 7.4 and 9, as described in the British Pharmacopoeia monograph 2019. The stock solution (30 µL) was added to the appropriate buffer (1 mL) and retained at 37 °C. Samples were then analyzed over the following 24-h period at selected time intervals (t = 0 min, 5 min, 30 min, 60 min, 90 min, 120 min and 24 h).

[7] = pH 4 buffer, 37 °C, read-out: % remaining 24 h pH 4
[8] = pH 4 buffer, 37 °C, read-out: Half-life pH 4 (converted)
[9] = pH 7.4 buffer, 37 °C, read-out: % remaining 24 h pH 7.4
[10] = pH 7.4 buffer, 37 °C, read-out: Half-life pH 7.4 (converted)
[11] = pH 9 buffer, 37 °C, read-out: % remaining 24 h pH 9
[12] = pH 9 buffer, 37 °C, read-out: Half-life pH 9 (converted)

Compound: O=C(/C=C/c1c2ccccc2cc2ccccc12)c1ccc(F)cc1 [Compound 21h, (E)-3-(anthracen-9-yl)-1-(4-fluorophenyl)prop-2-en-1-one]
- viability at 10 µM ([1]; Homo sapiens, 24 h): 70%

Compound: COc1ccc(C(=O)/C=C/c2c3ccccc3cc3ccccc23)cc1OC [Compound 21e, (E)-3-(Anthracen-9-yl)-1-(3,4-dimethoxyphenyl)prop-2-en-1-one]
- viability at 1 µM ([2]; Homo sapiens): 50 to 61%
- viability at 10 µM ([2]; Homo sapiens): 37 to 54%

Compound: O=C(C=CC12c3ccccc3C(c3ccccc31)C1C(=O)N(c3ccc(Cl)cc3)C(=O)C12)c1cccs1 (stereo not drawn) [Compound 25q, (E)-13-(4-Chlorophenyl)-9-(3-oxo-3-(thiophen-2-yl)prop-1-en-1-yl)-9,10-dihydro-9,10-[3,4]epipyrroloanthracene-12,14-dione]
- cell viability ([3]; 10 µM): 47%

Compound: COc1c2ccccc2c(/C=C/[N+](=O)[O-])c2ccccc12 [Compound 18b, reference compound]
- IC50 ([4]; Homo sapiens, CLL cell): 730 nM

Compound: O=C(C=CC12c3ccccc3C(c3ccccc31)C1C(=O)N(c3ccccc3)C(=O)C12)c1ccccn1 (stereo not drawn) [Compound 24n, 9-(E)-3-Oxo-3-(pyridin-2-yl)prop-1-en-1-yl)-13-phenyl-9,10-dihydro-9,10-[3,4]epipyrroloanthracene-12,14-dione]
- cell viability ([3]; 1 µM): 48%
- cell viability ([3]; 10 µM): 4%

Compound: O=C(/C=C/c1c2ccccc2cc2ccccc12)c1ccc(Cl)cc1 [Compound 21l, (E)-3-(anthracen-9-yl)-1-(4-chlorophenyl)prop-2-en-1-one]
- viability at 10 µM ([1]; Homo sapiens, 24 h): 70%

Compound: N#CC1CC2c3ccccc3C1(/C=C/[N+](=O)[O-])c1ccccc12 (stereo not drawn) [Compound 20e]
- IC50 ([4]; Homo sapiens, CLL cell): 1400 nM
- IC50 ([2]; Homo sapiens): 1600 nM
- viability at 10 µM ([2]; Homo sapiens): 14 to 43%
- IC50 ([1]; Homo sapiens, 24 h): 1100 nM
- viability at 10 µM ([1]; Homo sapiens, 24 h): 3%

Compound: O=C1OC(=O)C2C1C1c3ccccc3C2(/C=C/[N+](=O)[O-])c2ccccc21 (stereo not drawn) [Compound 20h]
- viability at 10 µM ([2]; Homo sapiens): 31%
- viability at 10 µM ([1]; Homo sapiens, 24 h): 2%

Compound: O=C(/C=C/C12c3ccccc3C(c3ccccc31)C1C(=O)N(c3ccc(Cl)cc3)C(=O)C12)c1ccc(F)cc1 (stereo not drawn) [Compound 25h, (E)-13-(4-Chlorophenyl)-9-(3-(4-fluorophenyl)-3-oxoprop-1-en-1-yl)-9,10-dihydro-9,10[3,4]epipyrroloanthracene-12,14-dione]
- cell viability ([3]; 10 µM): 35%

Compound: O=C(C=CC12c3ccccc3C(c3ccccc31)C1C(=O)N(c3ccc(Cl)cc3)C(=O)C12)c1ccc(I)cc1 (stereo not drawn) [Compound 25g, (E)-13-(4-Chlorophenyl)-9-(3-(4-iodophenyl)-3-oxoprop-1-en-1-yl)-9,10-dihydro-9,10-[3,4]epipyrroloanthracene-12,14-dione]
- cell viability [5]: 33%

Compound: O=C1NC(=O)C2C1C1c3ccccc3C2(C=C[N+](=O)[O-])c2ccccc21 (stereo not drawn) [Compound 20d]
- IC50 ([4]; Homo sapiens, CLL cell): 770 nM
- IC50 ([2]; Homo sapiens): 780 nM
- viability at 10 µM ([2]; Homo sapiens): 14 to 43%
- IC50 ([1]; Homo sapiens, 24 h): 760 nM
- viability at 10 µM ([1]; Homo sapiens, 24 h): 17%

Compound: O=C1C2C(C(=O)N1c1ccccc1)C1(/C=C/[N+](=O)[O-])c3ccccc3C2(Cl)c2ccccc21 (stereo not drawn) [Compound 20g]
- viability at 10 µM ([2]; Homo sapiens): 2%
- viability at 10 µM ([1]; Homo sapiens, 24 h): 1%

Compound: O=C(/C=C/C12c3ccccc3C(c3ccccc31)C1C(=O)N(c3ccccc3)C(=O)C12)c1ccc(F)cc1 (stereo not drawn) [Compound 24h]
- Half-life pH 4 ([6]; pH 4 buffer, 37 °C): 14.8 h
- % remaining 24 h pH 4 ([6]; pH 4 buffer, 37 °C): 25% and 24.97%
- Half-life pH 7.4 ([6]; pH 7.4 buffer, 37 °C): > 24 h
- % remaining 24 h pH 7.4 ([6]; pH 7.4 buffer, 37 °C): 80% and 79.48%
- Half-life pH 9 ([6]; pH 9 buffer, 37 °C): > 24 h
- % remaining 24 h pH 9 ([6]; pH 9 buffer, 37 °C): 81% and 80.99%

Compound: O=C(/C=C/c1c2ccccc2cc2ccccc12)c1ccc(Br)cc1 [Compound 21a, (E)-3-(anthracen-9-yl)-1-(4-bromophenyl)prop-2-en-1-one]
- recovery at 24 h [6]: < 50%
- remaining at 24 h, 14.6 µg/mL [6, 7]: 46.3%
- half-life at 14.6 µg/mL [6, 8]: 3.25 h
- remaining at 24 h, 14.6 µg/mL [6, 9]: 38.6%
- half-life at 14.6 µg/mL [6, 10]: 2 h
- remaining at 24 h, 14.6 µg/mL [6, 11]: 38.6%
- half-life at 14.6 µg/mL [6, 12]: 1.5 h

Compound: O=C(/C=C/C12c3ccccc3C(c3ccccc31)C1C(=O)OC(=O)C12)c1ccc(F)cc1 (stereo not drawn) [Compound 22h]
- recovery at 24 h [6]: < 50%
- Half-life pH 4 ([6]; pH 4 buffer, 37 °C): 2.1 h
- % remaining 24 h pH 4 ([6]; pH 4 buffer, 37 °C): 0.81%
- Half-life pH 7.4 ([6]; pH 7.4 buffer, 37 °C): 1 h
- % remaining 24 h pH 7.4 ([6]; pH 7.4 buffer, 37 °C): 3.13%
- % remaining 24 h pH 9 ([6]; pH 9 buffer, 37 °C): not detected

Compound: COc1ccc(C(=O)/C=C/C23c4ccccc4C(c4ccccc42)C2C(=O)NC(=O)C23)cc1 (stereo not drawn) [Compound 23i, (E)-9-(3-(4-Methoxyphenyl)-3-oxoprop-1-en-1-yl)-9,10-dihydro-9,10-[3,4]epipyrroloanthracene-12,14-dione]
- IC50 [4]: 11400 nM
- IC50 [2]: 10300 nM
- IC50 ([1]; PGA-1, 24 h): 12600 nM

Compound: O=C(/C=C/c1c2ccccc2cc2ccccc12)c1ccccn1 [Compound 21n, (E)-3-(anthracen-9-yl)-1-(pyridin-2-yl)prop-2-en-1-one]
- viability at 1 µM ([2]; Homo sapiens): 50 to 61%
- viability at 10 µM ([2]; Homo sapiens): 37 to 54%
- viability at 10 µM ([1]; Homo sapiens, 24 h): 47%

Compound: O=C(/C=C/c1c2ccccc2cc2ccccc12)c1ccc(Cl)cc1Cl [Compound 21d, (E)-3-(anthracen-9-yl)-1-(2,4-dichlorophenyl)prop-2-en-1-one]
- viability at 1 µM ([2]; Homo sapiens): 50 to 61%
- viability at 10 µM ([2]; Homo sapiens): 37 to 54%
- viability at 10 µM ([1]; Homo sapiens, 24 h): 50%

Compound: Nc1nc(F)nc2c1ncn2[C@@H]1O[C@H](CO)[C@@H](O)[C@@H]1O [Fludarabine, fludarabine, reference compound]
- IC50 ([4]; Homo sapiens, CLL cell): 30100 nM
- IC50 ([2]; Homo sapiens): 28100 nM
- IC50 ([1]; Homo sapiens, 24 h): 32000 nM

Compound: COc1cc(C(=O)/C=C/C23c4ccccc4C(c4ccccc42)C2C(=O)NC(=O)C23)cc(OC)c1OC (stereo not drawn) [Compound 23k, (E)-9-(3-Oxo-3-(3,4,5-trimethoxyphenyl)prop-1-en-1-yl)-9,10-dihydro-9,10-[3,4] epipyrroloanthracene-12,14-dione]
- IC50 [4]: 5190 nM
- IC50 [2]: 4900 nM
- IC50 ([1]; PGA-1, 24 h): 5380 nM

Compound: O=C(/C=C/C12c3ccccc3C(c3ccccc31)C1C(=O)N(c3ccccc3)C(=O)C12)c1ccc(Br)cc1 (stereo not drawn) [Compound 24a]
- recovery at 24 h [6]: < 50%
- remaining at 24 h, 14.6 µg/mL [6, 7]: 48.4%
- half-life at 14.6 µg/mL [6, 8]: 4.17 h
- remaining at 24 h, 14.6 µg/mL [6, 9]: 45.2%
- half-life at 14.6 µg/mL [6, 10]: 23.5 h
- remaining at 24 h, 14.6 µg/mL [6, 11]: 33.6%
- half-life at 14.6 µg/mL [6, 12]: 23.5 h
- viability at 10 µM ([2]; Homo sapiens): 14%
- viability at 10 µM ([1]; Homo sapiens, 24 h): 25%

Compound: O=C(c1ccccc1)c1ccc(N2C(=O)C3C4c5ccccc5C(/C=C/C(=O)c5cccs5)(c5ccccc54)C3C2=O)cc1 (stereo not drawn) [Compound 26q, (E)-13-(4-Benzoylphenyl)-9-(3-oxo-3-(thiophen-2-yl)prop-1-en-1-yl)-9,10-dihydro-9,10-[3,4]epipyrroloanthracene-12,14-dione]
- cell viability ([3]; 10 µM): 56%

Compound: O=C(c1ccccc1)c1ccc(N2C(=O)C3C4c5ccccc5C(/C=C/[N+](=O)[O-])(c5ccccc54)C3C2=O)cc1 (stereo not drawn) [Compound 20c]
- IC50 ([4]; Homo sapiens, CLL cell): 800 nM
- IC50 ([2]; Homo sapiens): 710 nM
- viability at 10 µM ([2]; Homo sapiens): 11%
- IC50 ([1]; Homo sapiens, 24 h): 880 nM
- viability at 10 µM ([1]; Homo sapiens, 24 h): 4%

Compound: COc1ccc(C(=O)/C=C/c2c3ccccc3cc3ccccc23)cc1 [Compound 21i, (E)-3-(anthracen-9-yl)-1-(4-methoxyphenyl)prop-2-en-1-one]
- recovery at 24 h [6]: < 50%
- remaining at 24 h, 14.6 µg/mL [6, 7]: 27.9%
- half-life at 14.6 µg/mL [6, 8]: ~11.5 h
- remaining at 24 h, 14.6 µg/mL [6, 9]: 26.6%
- half-life at 14.6 µg/mL [6, 10]: 3.85 h
- remaining at 24 h, 14.6 µg/mL [6, 11]: 42.1%
- half-life at 14.6 µg/mL [6, 12]: ~11.5 h
- viability at 10 µM ([1]; Homo sapiens, 24 h): 49%

Compound: O=C(C=CC12c3ccccc3C(c3ccccc31)C1C(=O)N(c3ccccc3)C(=O)C12)c1cccs1 (stereo not drawn) [Compound 24q, 9-(E)-3-Oxo-3-(thiophen-2-yl)prop-1-en-1-yl)-13-phenyl-9,10-dihydro-9,10-[3,4]epipyrroloanthracene-12,14-dione]
- cell viability ([3]; 10 µM): 24%

Compound: O=C1C2C3c4ccccc4C(C=C[N+](=O)[O-])(c4ccccc43)C2C(=O)N1c1ccc(Cl)cc1 (stereo not drawn) [Compound 20b]
- IC50 ([4]; Homo sapiens, CLL cell): 760 nM
- IC50 ([2]; Homo sapiens): 850 nM
- viability at 10 µM ([2]; Homo sapiens): 8%
- IC50 ([1]; Homo sapiens, 24 h): 660 nM
- viability at 10 µM ([1]; Homo sapiens, 24 h): 3%
